# Assay results as given in patent US20070037821A1, “Nitrosated glutamic acid compounds, compositions and methods of use” (NITROMED, INC., priority 2003, published 2007).
row,melting point,Compound
1,139 °C (dec.),Cl.N[C@@H](CCC(=O)OC(CO[N+](=O)[O-])CO[N+](=O)[O-])C(=O)O
2,107 to 110 °C,Cl.N[C@@H](CCC(=O)OCC#CCO[N+](=O)[O-])C(=O)O
3,70 to 72 °C (dec.),Cl.N[C@@H](CCC(=O)N1CCCC(CO[N+](=O)[O-])C1)C(=O)O (some centres unmarked)
4,132 to 135 °C,CC(C)(COC(=O)CC[C@H](N)C(=O)O)CO[N+](=O)[O-].Cl
5,135 to 138 °C,Cl.N[C@@H](CCC(=O)OCc1ccc(CO[N+](=O)[O-])cc1)C(=O)O

# The next lines start with the molecule.
row,Compound,melting point
1,Cl.N[C@@H](CCC(=O)N1CCC(CCO[N+](=O)[O-])CC1)C(=O)O,137 to 140 °C
2,Cl.N[C@@H](CCC(=O)OCCCC(CO[N+](=O)[O-])O[N+](=O)[O-])C(=O)O (some centres unmarked),90 to 94 °C
3,Cl.N[C@@H](CCC(=O)NCCCO[N+](=O)[O-])C(=O)O,57 to 60 °C
4,Cl.N[C@@H](CCC(=O)OCCCO[N+](=O)[O-])C(=O)O,137 to 139 °C
5,Cl.N[C@@H](CCC(=O)O[C@H]1CO[C@H]2[C@@H]1OC[C@H]2O[N+](=O)[O-])C(=O)O (stereo in doubt),160 to 162 °C
6,CC(C)(CNC(=O)CC[C@H](N)C(=O)O)CO[N+](=O)[O-].Cl,65 to 68 °C
